The source of these data is US20240139149A1, “THERAPEUTIC USES OF UROLITHIN DERIVATIVES” (Vandria SA, priority 2022, published 2024).

Assay [1] has as its system CD19-CAR T cells / Nalm-6 cells. Put plainly: CD19-CAR T cell generation in presence of UA and Nalm-6 killing. Format: cell-based, human.
Assay [2] deals with cortical neurons and microglial cells injured with Aβ1-42. Put plainly: Rat primary culture of cortical neurons and microglial cells injured with Aβ1-42. The format is cell-based. On the procedure:
Pregnant female rat (Wistar) of 15 days of gestation were killed using a deep anesthesia with CO2 chamber and a cervical dislocation. Fetuses were collected and immediately placed in ice-cold L15 Leibovitz medium with a 2% penicillin (10,000 U/mL) and streptomycin (10 mg/mL) solution (PS) and 1% bovine serum albumin (BSA). Cortex were specifically dissected and then were treated for 20 min at 37° C. with a trypsin-EDTA solution at a final concentration of 0.05% trypsin and 0.02% EDTA. The dissociation was stopped by addition of Dulbecco's modified Eagle's medium (DMEM) with 4.5 g/L of glucose, containing DNAse I grade II (final concentration 0.5 mg/mL) and 10% fetal calf serum (FCS). Cells were mechanically dissociated by three forced passages through the tip of a 10-mL pipette. Cells were then centrifuged at 515×g for 10 min at 4° C. The supernatant was discarded, and the pellet was resuspended in a defined culture medium consisting of Neurobasal medium with a 2% solution of B27 supplement, 2 mmol/liter of L-glutamine, 2% of PS solution, 10 ng/mL of brain-derived neurotrophic factor (BDNF), 2% of heat-inactivated horse serum, 2% of heat-inactivated FCS, 1 g/L of glucose, 1 mM of sodium pyruvate, and 100 μM of non-essential amino acids. The presence of serum in the medium allows the growth of the microglial cells. Viable cells were counted in a Neubauer cytometer, using the trypan blue exclusion test.
The cells were seeded at a density of 45 000 per well in 96-well plate precoated with poly-L-lysine and were cultured at 37° C. in an air (95%)—CO2 (5%) incubator. The medium was changed every 2 days.
On day 11 of culture, the compounds were dissolved in the appropriate vehicle and pre-incubated with the primary cortical neurons for one hour (1 h), before Aβ1-42 exposure.
On day 11 of culture, the cortical neurons were injured with the AP 1-42 peptide. AP 1-42 peptide was dissolved in the defined culture medium mentioned above, at an initial concentration of 20 μM. The solution was gently agitated for 3 days at 37° C. in the dark and immediately used after being properly diluted in culture medium to the concentration used (5 μM, 0.5 μM oligomers precisely evaluated by automatic WB). The AP 1-42 solution was applied on the culture at […] (0.5 μM oligomers, AβO), in presence of the compound, for 72 hours.
72 hours after the application of Aβ, the cell culture supernatant was removed. Cells were then washed with phosphate-buffered saline (PBS) and fixed with a cold solution of ethanol (95%) and acetic acid (5%) for 5 min at −20° C. After two washing steps with cold PBS, cells permeabilized and unspecific binding sites were blocked with a solution of PBS containing 0.1% of saponin and 1% of FCS, for 15 min at RT. Cells were incubated for 2 hours with: • a) Monoclonal anti-MAP2 antibody produced in mouse at dilution of 1/400 in PBS containing 1% FCS, 0.1% saponin, for 2 hours at room temperature. • b) Rabbit polyclonal antibody anti-SIRP alpha/CD172a (OX-41) at dilution of 1/400 in PBS containing 1% fetal calf serum and 0.1% of saponin (this antibody stains specifically the microglia and will allow to evaluate the activation of the microglial cells).
For each condition, 30 pictures (representative of the whole well area) were automatically taken using ImageXpress® (Molecular Devices) at 20× magnification using the same acquisition parameters. From images, the analyses were automatically performed by MetaXpress® (Molecular Devices). The following read-outs were measured: • Total neuron survival (number of MAP-2(+) neurons), • Total length of neurite network of MAP-2(+) neurons (in μm) • Total area of activated microglia (area of OX-41 signal, in μm^2)
All values are expressed as mean+/−SEM (standard error of the mean). Statistical analysis was performed by one-way ANOVA followed by Fisher's LSD test, with GraphPad Prism. p<0.05 was considered significant.

[3] abbreviates: 123 and 370 nM, Aβ1-42 72 hours.

The structures appear in SMILES notation.

In the case of `O=c1oc2cc(O)ccc2c2ccc(O)cc12` [UA, Urolithin A], the “CAR gene delivery into CD8+ cells” value in assay [1] is “did not impair”. Besides, in assay [1] (24 h co-culture), the “CD19 CAR-T cell mediated killing of NALM-6 leukemia cells” value was “did not have a negative impact”. For the same molecule, the “markers of exhaustion (Tim3HiPD-1Hi CD8+CAR+)” value in assay [1] (three days after transduction) was “not affected”. In addition, the “CAR expressing TSCM cells as share of CD8+ cells” value in assay [1] (three days post transduction, upon UA exposure) is recorded as “about 60%”.

`O=c1oc2cc(O)ccc2c2ccc(OC3CCOCC3)cc12` [compound 33, 3-hydroxy-8-((tetrahydro-2H-pyran-4-yl)oxy)-6H-benzo[c]chromen-6-one]: in assay [2], the “microglial activation (conclusion)” value is “significantly reduce” and the “neuroprotection in the inflammatory in vitro model (conclusion)” value is “neuroprotective”. In assay [2] (setting [3]), the “neurite network of cortical neurons (MAP-2)” value is “significantly protect” and the “survival of cortical neurons (MAP-2)” value was “significantly protect”. Moreover, the “microglial activation (OX-41)” value in assay [2] (between 41.1 nM and 370 nM, Aβ1-42 72 hours) is on record as “significant decrease”.
